For the data set, the system named is eye. As to the kind of experiment: Primary eye irritation, protocol FHSLA 16 CFR 1500.42. The format is in vivo. The conditions noted are these: products tested at 25% actives. How it is done:
Eye irritation is a major concern in the formulation of personal care products, particularly when working with quats. Primary eye irritation was tested using the protocol outlined in FHSLA 16 CFR 1500.42. The products were tested at 25% actives.

Regarding `CCCCCCCCCCCCCCCCCC[N+](C)(C)C.[Cl-]` [Stearyl trimethyl ammonium chloride], the Description result is reported as “Severely Irritating” and the Score was 106.0.
As to `CCCCCCCCCCCCCCCCCC[N+](C)(C)Cc1ccccc1.[Cl-]` [Stearalkonium Chloride], the Description result is recorded as “Severely Irritating” and the Score is given as 116.5.

These data come from patent publication US20010000523A1, “Carboxylated polymers complexes” (priority 1999, published 2001).
